The source of these data is paper PMC3282108 (ACS Chemical Biology, 2008).

SMILES strings stand for the structures.

For series [1], the system named is BT474 breast cancer cells. The series is described as follows: WST-1 colorimetric cell proliferation assay, BT474. Type of series: cell-based, human. Conditions: WST-1, concentration-dependent cell killing.
Another series has as its system Hsp70. Put plainly: Western blot of Hsp70 levels in BT474 and SKBR3 cells. Type of series: cell-based, human. Conditions: 17-AAG 0.178 μM, compound 8 1 or 5 μM. For orientation: Immunoblotting shows a protein as a band on a membrane.
The test system of the next series is cancer patients. As to conditions: cited from earlier work.
For the next series, the system named is HER2. The series is described as follows: Western blot of HER2 levels in BT474 cells. The format is cell-based, human. As to conditions: compound 8 1 μM, 6, 12, 24 h, 17-AAG 0.178 μM.
For series [2] the following is noted: cited from earlier work.

For the compound `C=CCNC1=C2C[C@@H](C)C[C@H](OC)[C@H](O)[C@@H](C)/C=C(\C)[C@H](OC(N)=O)[C@@H](OC)/C=C\C=C(/C)C(=O)NC(=CC1=O)C2=O` [Compound 17-AAG, 17-Allylamino-17-demethoxygeldanamycin], the “cell killing selectivity, BT474 versus SKBR3 and MCF-12F” value in series [1] was “significantly more potent in killing BT474 cells than SKBR3 and normal cells”. Further, in the series on Hsp70, the “Hsp70 levels” value is recorded as “significant increase in Hsp70 levels”. In addition, the “most common dose-limiting side effects” value in the series with cancer patients was “anorexia, nausea, diarrhea, hepatoxicity, fatigue, thrombocytopenia, and anemia”. In addition, the “HER2 levels in BT474 cells” value in the series with HER2 is “time-dependent decrease in HER2 levels”. Besides, the “solubility in aqueous solution” value in series [2] was “low solubility in aqueous solution”.
